Data: US20260083864A1, “CONTRAST AGENTS FOR USE IN DIAGNOSTIC COMPUTED TOMOGRAPHY IMAGING” (Bayer Aktiengesellschaft, priority 2022, published 2026)

Legend:
[1] = Relaxivity measurements at 1.41 T in water; type: physicochemical; conditions: 37° C., normalized to Gd
Method in brief: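 T1 by inversion recovery and T2 by CPMG at 1.41 T (60 MHz), 37° C, relaxation delay ≥5×T1. Three Gd concentrations between 0.05 and 2 mM; relaxivities derived from measured relaxation rates in water.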

[2] = target: T1, OATP1B3 (Homo sapiens, UniProt Q9NPD5); assay: Uptake into stable transfected OATP1B3 HEK 293 cells; type: cell-based; conditions: for Uptake into OATP1B3-HEK 293 cells: 40 min incubation, relative to RC1 (Gd-EOB-DTPA); for Inhibition Rifampicine: uptake into OATP1B3-HEK 293 cells
T1 sequence (Q9NPD5 1-702): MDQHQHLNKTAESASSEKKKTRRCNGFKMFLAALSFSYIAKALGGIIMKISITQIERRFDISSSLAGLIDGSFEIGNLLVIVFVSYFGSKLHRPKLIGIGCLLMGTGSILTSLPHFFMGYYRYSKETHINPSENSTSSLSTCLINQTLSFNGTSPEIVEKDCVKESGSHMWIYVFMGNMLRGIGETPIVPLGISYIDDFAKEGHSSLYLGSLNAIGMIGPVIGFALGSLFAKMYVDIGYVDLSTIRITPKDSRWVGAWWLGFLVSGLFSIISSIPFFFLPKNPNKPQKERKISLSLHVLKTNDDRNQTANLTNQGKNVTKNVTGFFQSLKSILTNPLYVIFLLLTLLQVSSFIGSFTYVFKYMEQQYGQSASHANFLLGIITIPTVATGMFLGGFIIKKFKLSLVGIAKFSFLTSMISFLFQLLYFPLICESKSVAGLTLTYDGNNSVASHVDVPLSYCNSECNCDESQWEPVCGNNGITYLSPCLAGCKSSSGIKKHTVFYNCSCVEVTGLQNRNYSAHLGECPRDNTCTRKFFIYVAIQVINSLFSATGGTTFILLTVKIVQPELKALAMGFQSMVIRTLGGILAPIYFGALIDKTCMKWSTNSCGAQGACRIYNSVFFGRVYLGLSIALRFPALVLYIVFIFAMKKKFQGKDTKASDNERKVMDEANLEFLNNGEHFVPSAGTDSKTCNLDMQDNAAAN
Method in brief: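 HEK 293 cells stably transfected with human OATP1B3 were incubated for 40 min with test items at 100 μM final in transport buffer, in triplicate, then washed with cold PBS. Gadoxetate (Gd-EOB-DTPA) served as the reference standard on the same plate.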

[3] = test system: plasma proteins; assay: Plasma protein binding, equilibrium dialysis, dog; type: in vitro ADME
From the text: (§1) The binding of Example 1 and 15 to plasma proteins of different species (human, dog, monkey, rabbit, mouse and rat) was investigated in vitro by using equilibrium dialysis in reusable 96-well Micro-Equilibrium Dialysis Devices (ht dialysis) (Banker M J et al. J Pharm Sci. 2003 May; 92 (5): 967-74).

[4] = test system: plasma proteins; assay: Plasma protein binding, equilibrium dialysis, monkey; type: in vitro ADME
From the text: as §1

[5] = test system: plasma proteins; assay: Plasma protein binding, equilibrium dialysis, human; type: in vitro ADME
From the text: as §1

[6] = test system: cryopreserved human hepatocytes; assay: In vitro metabolism in cryopreserved human hepatocytes; type: in vitro ADME; conditions: 5 μM, incubation time of 4 h, LC-MS
Procedure: (§2) The in vitro metabolism was investigated in cryopreserved human and rat hepatocytes (Li A P et al. Biomark Med. 2014; 8 (2): 173-83). Cryopreserved human (WSS) and rat hepatocytes (Wistar rat, RWH137, male) were incubated with the test compound (incubation concentration: 5 μM). The amount of remaining compound was related to the initial amount (0 mins). The cells were removed from the liquid nitrogen. The vial was immersed in the 37° C. water bath and shaken gently (by hand) until most of the ice was melted (approx. 90 sec.). The cell suspensions were transferred e.g. into a 50 ml-centrifuge tube and 12 ml of 4° C.-cold buffer (e.g. Krebs-Henseleit or Williams Medium E) were added. The cell suspension was centrifuged at 50×g for 5 mins. The buffer was aspirated, and the cells resuspended in 5 ml of fresh warm buffer. An aliquot of 50 μl was mixed with 200 μl trypan blue to determine the cell density and cell viability. The cell suspension was adjusted to a final concentration of 0.8 Mio hepatocytes per mL. The incubations were performed in 96 well plates (1.2 ml volume, negative control without cells). The 0 min samples were stopped immediately by adding 250 μl of ice-cold methanol. All other samples are shaken on an Heidolph®-rotor during incubation in a 37° C. incubator for the indicated period of 4 hours. Aliquots of the samples were used for analysis. All samples were analyzed using LC-MS at 0 h, 1 h, 2 h and 4 h (exemplary LC-MS: Accucore C-18 column, 30° C., 0.35 mL/min flow rate, solvent A: 10 mM Ammonium formate+5% MeCN, pH4 and solvent B: MeCN+0.1% formic acid; […] injection volume, gradient: 90% A, 10% B, 5 min 70% A and 30% B, 8 min 0% A and 100% B).

[7] = test system: cryopreserved rat hepatocytes; assay: In vitro metabolism in cryopreserved rat hepatocytes; type: in vitro ADME; conditions: 5 μM, incubation time of 4 h, LC-MS
Procedure: as §2

Structure (SMILES): CCOc1ccc(CCOCC(C(=O)O)N2CCN(CC(=O)[O-])CCN(CC(=O)[O-])CCN(CC(=O)[O-])CC2)cc1.[Gd+3] (stereo not shown) [Example 1, gadolinium 2,2′,2″-(10-{1-carboxy-2-[2-(4-ethoxyphenyl)ethoxy]ethyl}-1,4,7,10-tetraazacyclododecane-1,4,7-triyl)triacetate]
- r1 water [1]: 4.1 L/mmol/s
- Uptake into OATP1B3-HEK 293 cells [2]: 24 % of RC1
- Inhibition Rifampicine [2]: 97 % inhibition
- Fraction unbound fu [3]: 96%
- Fraction unbound fu [4]: 94%
- Fraction unbound fu [5]: 99%
- Metabolites detected [6]: No metabolites were detected
- Metabolites detected [7]: No metabolites were detected

Structure (SMILES): CCOCCOCCOc1ccc(CC(C(=O)O)N2CCN(CC(=O)[O-])CCN(CC(=O)[O-])CCN(CC(=O)[O-])CC2)cc1.[Gd+3] (stereo not shown) [Example 2, gadolinium 2,2′,2″-{10-[1-carboxy-2-{4-[2-(2-ethoxyethoxy)ethoxy]phenyl}ethyl]-1,4,7,10-tetraazacyclododecane-1,4,7-triyl}triacetate]
- r1 water [1]: 4.4 L/mmol/s
- Uptake into OATP1B3-HEK 293 cells [2]: 56 % of RC1
- Inhibition Rifampicine [2]: 80 % inhibition
- Fraction unbound fu [3]: >95%
- Fraction unbound fu [4]: >95%
- Fraction unbound fu [5]: >95%
- Metabolites detected [6]: No metabolites were detected
- Metabolites detected [7]: No metabolites were detected

Structure (SMILES): CCOCCOCCOc1ccc(CCC[C@@H](C(=O)O)N2CCN([C@@H](CO)C(=O)[O-])CCN([C@@H](CO)C(=O)[O-])CCN([C@@H](CO)C(=O)[O-])CC2)cc1.[Gd+3] [Example 15, gadolinium (2S,2′S,2″S)-2,2′,2″-{10-[(1S)-1-carboxy-4-{4-[2-(2-ethoxyethoxy)ethoxy]phenyl}butyl]-1,4,7,10-tetraazacyclododecane-1,4,7-triyl}tris(3-hydroxypropanoate)]
- r1 water [1]: 5.1 L/mmol/s
- Inhibition Rifampicine [2]: 98 % inhibition
- Fraction unbound fu [3]: 91%
- Fraction unbound fu [4]: 88%
- Fraction unbound fu [5]: 86%
- Metabolites detected [6]: No metabolites were detected
- Metabolites detected [7]: No metabolites were detected

Structure (SMILES): CCOc1ccc(CC(CN(CCN(CC(=O)[O-])CC(=O)[O-])CC(=O)[O-])N(CC(=O)[O-])CC(=O)[O-])cc1.[Gd+3].[Na+].[Na+] (stereo not shown) [RC1, gadoxetate disodium, reference compound]
- Uptake into OATP1B3-HEK 293 cells [2]: 100 % of RC1
- Inhibition Rifampicine [2]: 99 % inhibition
